Assay results as given in patent US5001154A, “Fervescence composition” (K.K. Ueno Seiyaku Oyo Kenkyujo, priority 1987, dated 1991).

What was measured:
[1] = fervescence activity by intravenous injection (rising of body temperature), 1 mg/kg; assay type: in vivo, Wister male rats; settings: 1 mg/kg intravenous, urethane-anesthetized rats
Experimental: fervescence activity by intravenous injection Test animals were Wister male rats (8 weeks old) weighing 200±10 g. The rats were applied to anesthesia by intraperitoneal injection of 1.25 g/kg of urethane. Each test drug was dissolved into ethyl alcohol. The ethyl alcohol solution was diluted with Ringer's solution at least 50 times just before use and 1 mg/kg of the each test drug was intravenously administered. Body temperature was measured in the same manner as in Example 1. Ringer's solution containing ethyl alcohol was administered as control. Rising of body temperature is shown by the rising degree (°C.) from the temperature before administration.

[2] = fervescence activity by intracerebroventricular injection (rising of body temperature); assay type: in vivo, Wister male rats; settings: 400 ng in 3 μl into lateral ventricle, urethane-anesthetized rats, rectal temperature
Experimental: fervescence activity by intracerebroventricular injection
Wister male rats (8 weeks old) were used as test animals.
Rats were applied to anesthesia by intraperitoneal injection with 1.25 g/kg of urethane and a stainless guide cannula was inserted into the lateral ventricle for administration of a test drug according to Pellegrino's Rat brain atras.
Each test drug was dissolved into an artificial cerebrospinal fluid and 400 ng as drug in 3 μl was injected through the injection cannula for 15 seconds. The artificial cerebrospinal fluid alone was injected as control. Body temperature was measured continuously at the rectum. Rising of body temperature is shown by the rising degree (°C.) from the temperature before administration.

[3] = sedation activity and rising of body temperature in dog; assay type: in vivo, hybrid adult dog; settings: intravenous
Source text: Sedation Activity A 19-methyl type compound having strong fervescence activity was compared with PGE2 […] sedation activity. A hybrid adult dog was held on a holder for dog and intravenously administered with a test drug dissolved in Ringer's solutions at the forefoot. Sedation activity was judged as follows: Sedation Degree 1: Disappearance of body movement 2: Closing of the eyes 3: Leaning on the holding belt

acute toxicity (LD50) = settings: mouse, in vivo; mice, intravenous injection
Source text: Acute toxicity (LD50) of the test drugs was estimated on Slc-ddY female mice (5-weeks old) by an intravenous injection.

[4] = fervescence (recovery of body temperature) activity at hemorrhage load; assay type: in vivo, Wister male rats; settings: rat loaded with hemorrhage
Experimental: fervescence (recovery of body temperature) activity at hemorrhage load
Wister male rats (weight: 200 g) were subcutaneously injected on the back with 1.5 g/kg of urethane, subjected to anesthesia. Hemorrhage was then induced by withdrawal of blood by puncture of the heart for the total volume of 3 ml equivalent to 1.5% of the body weight. After kept in a room for 60 minutes, the rats were administered intravenously with test solutions prepared by dissolving test drugs into Ringer's solution so as to administer the rat at a dose of 0.5 or 1 mg/kg, and change of the body temperature was observed. Ringer's solution was administered as control.
In the figures, (1), (2) and (3) correspond to the results of administration of doses 1 mg/kg, 0.5 mg/kg and Ringer's solution alone, respectively.

[5] = fervescence activity by intravenous injection (rising of body temperature), 5 mg/kg; assay type: in vivo, Wister male rats; settings: 5 mg/kg intravenous, urethane-anesthetized rats
Experimental: Test animals were Wister male rats (8 weeks old) weighing 200±10 g. The rats were applied to anesthesia by intraperitoneal injection of 1.25 g/kg of urethane. Each test drug was dissolved into ethyl alcohol. The ethyl alcohol solution was diluted with Ringer's solution at least 50 times just before use and 1 mg/kg of the each test drug was intravenously administered. Body temperature was measured in the same manner as in Example 1.
Ringer's solution containing ethyl alcohol was administered as control. Rising of body temperature is shown by the rising degree (°C.) from the temperature before administration.
Experiment was carried out in the same manner as in Example 2 except for that test drugs were administered intravenously with a dose of 5 mg/kg.

[6] = in vivo; cited from earlier work

SMILES: CCCCCC(=O)CC[C@H]1[C@H](O)CC(=O)[C@@H]1C/C=C\CCCC(=O)O [compound 22]
- Rising of Body Temperature [1]: 0 °C
- Rising of Body Temperature [2]: +0.7 °C

SMILES: COC(=O)CCC/C=C\C[C@H]1C(=O)C[C@@H](O)[C@@H]1CCC(=O)CCCC(C)C [compound 45]
- Rising of Body Temperature ([3]; 0.5 mg/kg): 0.5 °C
- Rising of Body Temperature [1]: +2.0 °C

SMILES: COC(=O)CCCCC(=O)C[C@H]1C(=O)C[C@@H](O)[C@@H]1CCC(=O)CCCC(C)C [compound 15]
- Rising of Body Temperature ([3]; 0.5 mg/kg): 1.2 °C
- Rising of Body Temperature [1]: +0.7 °C

SMILES: CCCCCC(=O)CC[C@H]1[C@H](O)CC(=O)[C@@H]1CC(=O)CCCCC(=O)OC [compound 7]
- Rising of Body Temperature [1]: +0.8 °C
- Rising of Body Temperature [2]: +0.6 °C

SMILES: CCOC(=O)CCCCC(=O)C[C@H]1C(=O)C[C@@H](O)[C@@H]1CCC(=O)CCCC(C)C [compound 16]
- LD50 (acute toxicity (LD50)): > 300 mg/kg
- Rising of Body Temperature ([3]; 0.5 mg/kg): 1.1 °C
- Rising of Body Temperature ([4]; 0.5 mg/kg intravenous): +0.4 °C
- Rising of Body Temperature ([4]; 1 mg/kg intravenous): +0.6 °C
- Rising of Body Temperature [1]: +0.8 °C

SMILES: CCCCCC(=O)CC[C@H]1[C@H](O)CC(=O)[C@@H]1C/C=C\CCCC(=O)OC [compound 23]
- LD50 (acute toxicity (LD50)): > 1000 mg/kg
- Rising of Body Temperature [1]: +1.0 °C
- Rising of Body Temperature [2]: +0.4 °C

SMILES: CCCCCC(=O)CC[C@H]1[C@H](O)CC(=O)[C@@H]1CCCCCCC(=O)O [compound 1]
- Rising of Body Temperature [1]: 0 °C
- Rising of Body Temperature [2]: +0.4 °C

SMILES: CCCCCC(=O)CC[C@H]1[C@H](O)CC(=O)[C@@H]1C/C=C\CCCC(=O)OCCCC [compound 26]
- Rising of Body Temperature [5]: +0.9 °C
- Rising of Body Temperature [1]: +0.2 °C
- Rising of Body Temperature [2]: +0.1 °C

SMILES: CCCCCC(=O)CC[C@H]1[C@H](O)CC(=O)[C@@H]1CC(=O)CCCCC(=O)OCC [compound 8]
- Rising of Body Temperature ([4]; 0.5 mg/kg intravenous): +0.7 °C
- Rising of Body Temperature ([4]; 1 mg/kg intravenous): +0.8 °C
- Rising of Body Temperature [1]: +0.6 °C
- Rising of Body Temperature [2]: +0.4 °C

SMILES: CCCCCC(=O)CC[C@H]1[C@H](O)CC(=O)[C@@H]1CCCCCCC(=O)OCC [compound 2]
- LD50 (acute toxicity (LD50)): > 1000 mg/kg
- Rising of Body Temperature [1]: +0.9 °C
- Rising of Body Temperature [2]: +0.4 °C

SMILES: CCCCCC(=O)CC[C@H]1[C@H](O)CC(=O)[C@@H]1C/C=C\CCCC(=O)OCC [compound 24]
- LD50 (acute toxicity (LD50)): 1000 mg/kg
- Rising of Body Temperature ([4]; 0.5 mg/kg intravenous): +0.8 °C
- Rising of Body Temperature ([4]; 1 mg/kg intravenous): +1.1 °C
- Rising of Body Temperature [1]: +0.5 °C
- Rising of Body Temperature [2]: +0.5 °C

SMILES: CCCCC[C@H](O)/C=C/[C@H]1[C@H](O)CC(=O)[C@@H]1C/C=C\CCCC(=O)O [Test drug 58, PGE2]
- blood pressure (known) [6]: strongly decreases the blood pressure
- fervescence activity (known) [6]: known to have fervescence activity

SMILES: CCCCC[C@H](O)/C=C/[C@H]1[C@H](O)CC(=O)[C@@H]1C/C=C\CCCC(=O)OC [Test drug 59, PGE2 methyl ester, reference compound]
- sedation activity (in words) [3]: clear sedation activity

SMILES: CCOC(=O)CCCCC(=O)C[C@H]1C(=O)C[C@@H](O)[C@@H]1/C=C/C(=O)CCCC(C)C [compound 62]
- Rising of Body Temperature [5]: +0.63 °C

SMILES: CCCCCC(=O)CC[C@H]1[C@H](O)CC(=O)[C@@H]1C/C=C\CCCC(=O)OCCC [compound 25]
- Rising of Body Temperature [5]: +1.3 °C
- Rising of Body Temperature [1]: +0.2 °C

SMILES: CCCCCC(=O)CC[C@H]1[C@H](O)CC(=O)[C@@H]1CC(=O)CCCCC(=O)O [compound 6]
- Rising of Body Temperature [1]: 0 °C
- Rising of Body Temperature [2]: +0.8 °C

SMILES: CCCCC[C@H](O)/C=C/[C@H]1[C@H](O)CC(=O)[C@@H]1C/C=C\CCCC(=O)OC [compound 59]
- Rising of Body Temperature ([3]; 0.01 mg/kg): 0.4 °C
- Rising of Body Temperature [1]: +1.2 °C
